Experimental data: patent US8258171B2, “pH-sensitive fluorescent probe” (The University of Tokyo, priority 2006, dated 2012)

Experiments:
[1] = Optical characteristics of pH-sensitive fluorescent probes (absorption, emission, fluorescence quantum yield); assay type: physicochemical; details: for Φfl (fluorescence quantum yield): fluorescein (Φfl = 0.85) as reference
Method: (§1) Optical characteristics of the compounds of the present invention, 3a (H2NBDP-PH), 3b (DiMeNBDP-PH), and 3c (DiEtNBDP-PH), and a compound not having an anilinic amino group as a pH detecting moiety, 3d (PhBDP-PH), as a control compound were measured.

[2] = pH-dependent change of fluorescence quantum yield and pKa by Henderson-Hasselbach equation; assay type: physicochemical; details: for pKa: Determined with Henderson-Hasselbach equation using fluorescence quantum yield; for pH-dependency of fluorescence intensity (fluorescence quantum yield): FIG. 1
Method: as §1

[3] = control compound without anilinic amino group, no form or pH given
[4] = N-protonated form, pH 1.47 for 3a, pH 2.00 for 3b and 3c

Row | Compound | Stokes' shift [1, 3] [nm] | ε [1, 3] [M⁻¹ cm⁻¹] | λabs, max [1, 3] [nm] | λem, max [1, 3] [nm] | Φfl (fluorescence quantum yield) [1, 3] | Stokes' shift ([1]; N-nonprotonated form, pH 9.00) [nm] | ε ([1]; N-nonprotonated form, pH 9.00) [M⁻¹ cm⁻¹] | λabs, max ([1]; N-nonprotonated form, pH 9.00) [nm] | λem, max ([1]; N-nonprotonated form, pH 9.00) [nm] | Φfl (fluorescence quantum yield) ([1]; N-nonprotonated form, pH 9.00) | Stokes' shift [1, 4] [nm] | ε [1, 4] [M⁻¹ cm⁻¹] | λabs, max [1, 4] [nm] | λem, max [1, 4] [nm] | Φfl (fluorescence quantum yield) [1, 4] | pKa [2] | pH-dependency of fluorescence intensity (fluorescence quantum yield) [2]
1 | CC1=C(CCC(=O)O)C(C)=[N+]2C1=C(c1ccccc1)c1c(C)c(CCC(=O)O)c(C)n1[B-]2(F)F [Compound 3d, 1,3,5,7-Tetramethyl-2,6-bis-(2-carboxyethyl)-8-phenyl-4,4-difluoro-4-bora-3a,4a-diaza-s-indacene, reference compound] | 14 | 73200 | 520 | 534 | 0.56 |  |  |  |  |  |  |  |  |  |  |  | 
2 | CC1=C(CCC(=O)O)C(C)=[N+]2C1=C(c1ccc(N)cc1)c1c(C)c(CCC(=O)O)c(C)n1[B-]2(F)F [Compound 3a, 1,3,5,7-Tetramethyl-2,6-bis-(2-carboxyethyl)-8-(4-aminophenyl)-4,4-difluoro-4-bora-3a,4a-diaza-s-indacene] |  |  |  |  |  | 17 | 71100 | 519 | 536 | 0.002 | 13 | 72100 | 520 | 533 | 0.55 | 3.8 | pH-dependency following the Henderson-Hasselbach equation
3 | CCN(CC)c1ccc(C2=C3C(C)=C(CCC(=O)O)C(C)=[N+]3[B-](F)(F)n3c(C)c(CCC(=O)O)c(C)c32)cc1 [Compound 3c, 1,3,5,7-Tetramethyl-2,6-bis-(2-carboxyethyl)-8-[4-(N,N-diethylamino)phenyl]-4,4-difluoro-4-bora-3a,4a-diaza-s-indacene] |  |  |  |  |  | 17 | 64400 | 519 | 536 | 0.002 | 13 | 64100 | 521 | 534 | 0.56 | 6.0 | pH-dependency following the Henderson-Hasselbach equation
4 | CC1=C(CCC(=O)O)C(C)=[N+]2C1=C(c1ccc(N(C)C)cc1)c1c(C)c(CCC(=O)O)c(C)n1[B-]2(F)F [Compound 3b, 1,3,5,7-Tetramethyl-2,6-bis-(2-carboxyethyl)-8-[4-(N,N-dimethylamino)phenyl]-4,4-difluoro-4-bora-3a,4a-diaza-s-indacene] |  |  |  |  |  | 16 | 62300 | 519 | 535 | 0.002 | 14 | 58900 | 521 | 535 | 0.56 | 4.3 | pH-dependency following the Henderson-Hasselbach equation
